For one series, the system named is advanced NSCLC. The note with it: advanced NSCLC progressed after first-line chemotherapy; cited from earlier work.
Another series deals with NSCLC. The note with it: cited from earlier work.
The nature of series [1]: Steady-state plasma pharmacokinetics. It counts as in vivo, human.
For series [2] the following is noted: single-agent enzastaurin 525 mg orally daily; cited from earlier work.
A further series deals with metastatic NSCLC. Conditions: single agent, second- or third-line; cited from earlier work.
Where [3] appears, read: 150 mg erlotinib daily with 250 mg enzastaurin, geometric mean (CV%), n 3.
Setting [4] is: 150 mg erlotinib daily with 500 mg enzastaurin, geometric mean (CV%), n 11.

This is an account of results in paper PMC3313020 (Cancer Chemotherapy and Pharmacology, 2011).

Several values for one entry are separate records, joined by “and”; a condition that tells them apart may be missing. Equal values may be shown once. Read-outs that look alike come from different tables or passages of the source.

Usually Tmax stands for the time at which the peak concentration occurs. By AUC is commonly meant the area under the concentration-time curve, a measure of exposure. Read a low AUC as low exposure. The Cmax is the maximum level reached in the sampled fluid or tissue.

With `C#Cc1cccc(Nc2ncnc3cc(OCCOC)c(OCCOC)cc23)c1` [erlotinib], the overall response rate in the series on advanced NSCLC is reported as 6.2%. Further, the “hazard ratio (overall survival vs placebo)” value in the series with NSCLC (P < 0.001) is listed as 0.70. In the series on NSCLC (unselected population, vs placebo <1%, P < 0.001), the response rate is 8.9%. Moreover, the overall survival in the series on NSCLC (vs placebo 4.7 months) is on record as 6.7 months. Moreover, in series [1] (setting [3]), the “C av,ss” value was 1,030 (19) ng/mL; the CLss/F was 6.07 L/h and 6.07 (19) L/h. In series [1] (setting [4]), the “C av,ss” value is 1,090 (45) ng/mL; the CLss/F was 5.75 L/h and 5.75 (45) L/h.

`Cn1cc(C2=C(c3cn(C4CCN(Cc5ccccn5)CC4)c4ccccc34)C(=O)NC2=O)c2ccccc21` [Enzastaurin]: in series [2], the “AUCτ,ss” value is recorded as 23,600 nmol × h/L and the CLss/F is listed as 40.3 L/h. Further, in the series with metastatic NSCLC, the “patients with prolonged stabilization >6 months” value is on record as 11%. In addition, the “C av,ss” value in series [1] (enzastaurin 500 mg once daily with erlotinib 150 mg daily, geometric mean (CV%), N 12) is reported as 750 (71) nmol/L. Also, in series [1] (human, plasma, oral), the Tmax amounted to 4.04 h. The AUC in series [1] (human, plasma, oral, AUCτ,ss, enzastaurin 500 mg once daily with erlotinib 150 mg daily, geometric mean (CV%), N 12) is 18 µM·h. The concentration in series [1] (human, plasma, oral, C max,ss, enzastaurin 500 mg once daily with erlotinib 150 mg daily, geometric mean (CV%), N 12) peaked (Cmax) at 1600 nM.
